Measured values reported in publication PMC9525653, “Mutations conferring SO4^2− pumping ability on the cyanobacterial anion pump rhodopsin and the resultant unique features of the mutant” (Scientific Reports, 2022).

Key:
MrHR [1] = biological target: MrHR (Mastigocladopsis repens, UniProt A0A6P3CW41, E182T); assay: biochemical
MrHR [2] = biological target: MrHR (Mastigocladopsis repens, UniProt A0A6P3CW41); assay: biochemical
MrHR (Mastigocladopsis repens, UniProt A0A6P3CW41), sequence (A0A6P3CW41 1-232): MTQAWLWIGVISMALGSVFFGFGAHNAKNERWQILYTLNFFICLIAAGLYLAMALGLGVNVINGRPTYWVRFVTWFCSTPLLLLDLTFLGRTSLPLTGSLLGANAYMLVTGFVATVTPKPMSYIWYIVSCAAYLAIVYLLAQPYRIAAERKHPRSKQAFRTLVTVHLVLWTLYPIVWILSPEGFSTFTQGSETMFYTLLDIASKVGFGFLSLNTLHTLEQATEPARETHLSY

MrHR (Mastigocladopsis repens, UniProt A0A6P3CW41, E182T), sequence (A0A6P3CW41 1-232 E182T): as the sequence (A0A6P3CW41 1-232) above, with E182T counted along it

SMILES: Cl [Cl^−]
- Kd (MrHR [1]): 1.18 mM
- Kd (MrHR [2]): 4.98 mM
